Data as given in US11351218B2, “Composition for preventing or treating glioblastoma comprising Platycodon grandiflorum A. De Candolle, Scutellaria baicalensis, Phellodendron amurense Ruprecht or Rubus coreanus” (University-Industry Cooperation Group of Kyung Hee …, priority 2019, dated 2022).

Experiments:
normal human astrocytes = test: WST1 cell viability assay, normal astrocytes; format: cell-based; conditions: normal human astrocytes vs GBM cells, 48 hours
Procedure: (§1) FIGS. 6A and 6B show the results that PD induces a decrease in cell viability and vacuole formation. […] Data shown represent the means of quintuplicate measurements which were repeated three times. The results are presented as a percentage of control (means±SD).
(§2) Cell cytotoxicity was assessed by WST1 assay. U87 and U373 cells were each seeded in a 96-well plate (5×10^3 cells/well) and treated with different concentrations of platycodin D (PD). Then, cells were incubated with a WST1 reagent (Dogen, Seoul, Korea) for 2 hours before reading the plate. Absorbance was measured at 450 nm using an ELISA reader (Versa Max, Molecular Devices, Sunnyvale, Calif., USA).
(§3) Inhibition of autophagy has been reported to cause cancer cell death. Therefore, the cytotoxic effects of PD on U87MG, U373MG, and normal astrocytes were examined. After treating these cells with various doses of PD for 48 hours, their cell viability was analyzed by WST1 assays. […] As can be confirmed in FIG. 6B, morphological changes were also visualized by an optical microscope after exposure of GBM cells to 10 μM PD for 24 hours.

U87MG and U373MG cells [1] = test: LysoTracker assay with GFP-LC3B (autophagosome-lysosome fusion) in GBM cells; format: cell-based, human; conditions: PD 10 μM, 24 hours
Text: […] Then, cells were stained with LysoTracker (red) and DAPI (blue). The merged images show an overlap between GFP-LC3 and LysoTracker (yellow). The panels on the right are higher-magnification images of the boxed regions.
(§4) Cultured cells seeded in plates with microscope coverslips were transfected with a pGFP-LC3B plasmid using Lipofectamine 3000 (Thermo Fisher Scientific) according to the manufacturer's instructions. After the transfection, the cells were fixed with 4% paraformaldehyde (PFA) in phosphate-buffered saline (PBS) at room temperature for 10 minutes. The images were examined under a laser confocal microscope (Zeiss, Oberkochen, Baden-Wurttemberg, Germany).
To stain acidic compartments, 50 nM LysoTrackerRedDND-99 (Thermo Fisher Scientific) was added to a medium at 37° C. with 5% CO2 for 30 minutes prior to fixation. The nuclei were labeled with 4,6-diamidino-2-phenylindole (DAPI, Sigma). The slides were finally mounted using a Faramount mounting medium (Dako, Glostrup, Denmark). The images were examined under a Zeiss laser confocal microscope.
Experimental Result 11. PD Blocks Fusion of Autophagosomes with Lysosomes. Since p62 was accumulated in autophagosomes by PD treatment, it was speculated that PD may cause the lysosomal dysfunction like bafilomycin A1, which inhibits vacuolar H^+-ATPase (V-ATPase)-dependent lysosomal acidification and blocks autophagosome-lysosome fusion. Thus, the PD-treated cells with LysoTracker Red, which is a marker for acidic compartment including lysosomes was stained to examine the colocalization of GFP-LC3B.

U87MG and U373MG cells [2] = test: Cell morphology (vacuole formation) under optical microscope, GBM cells; format: cell-based, human; conditions: 10 μM PD, 24 hours
Procedure: as §1, §3

[3] = test system: A549, H358, MCF7, HT29 and HepG2 cells; test: WST1 cell viability assay in various cancer cell lines; format: cell-based; conditions: different concentrations, 48 hours, all cell lines tested
Procedure: FIGS. 9A to 9C show the results that PD decreases cell viability and vacuole formation in various cancer cell lines. FIGS. 9A and 9B show the results in which indicated cells were treated with different concentrations of PG or PD for 48 hours and cell viability was measured by WST1 assay. Data shown represent the means of quintuplicate measurements which were repeated three times. The results are presented as a percentage of control (means±SD).
as §2
Previously, PD was reported to inhibit cell viability in various cancer cell lines. To further confirm the effects of PD on the cytotoxicity of cancer cells, WST1 assay was performed following treatment with different concentrations of PD.

U87MG and U373MG cells [4] = test: Immunofluorescence of SQSTM1/p62 with GFP-LC3B in GBM cells; format: cell-based, human; conditions: PD 10 μM or BafA1 (100 μM), 24 hours
Procedure: The cells expressing GFP-LC3B (green) were treated with DMSO, PD (10 μM), or BafA1 (100 μM) for 24 hours, followed by staining with an anti-SQSTM1 antibody (red) and DAPI (blue). The merged images (yellow) indicate co-localization between LC3 and p62. The panels on the right are higher-magnification images of the boxed regions.
as §4
Cells treated with the materials were permeabilized with 0.01% Triton X-100 in PBS. After blocking the resulting cells in 2% bovine serum albumin (BSA) in PBS, they were incubated at 4° C. with a primary antibody against SQSTM1/p62 (Santa Cruz) overnight. The stained cells were incubated with an Alexa594-conjugated secondary antibody (Invitrogen, Calif., USA). The images were examined under a Zeiss laser confocal microscope.

U87MG cells = test: GFP-LC3B puncta assay (confocal microscopy), U87MG cells; format: cell-based, human; conditions: 10 μM PD, 24 hours
Procedure: The cells transiently expressing GFP-LC3 (green) were treated with DMSO or PD (10 μM) for 24 hours and analyzed by confocal microscopy. Nuclei were stained with DAPI (blue). Quantification shown on the right graph represents mean GFP-LC3B puncta per cells from three independent experiments±SD.
as §4
To confirm the western blot data, the LC3B accumulation in GBM cells was monitored using a confocal microscope. Both U87MG and U373MG cells transfected with a green fluorescent protein (GFP)-tagged LC3 expression plasmid were treated with 10 μM PD for 24 hours and examined under a confocal microscope.

U87MG and U373MG cells [5] = test: Clonogenic assay, GBM cells; format: cell-based, human; conditions: PD 10 μM or 20 μM, 7 days
Procedure: FIGS. 19A and 19B show the results that MβCD restores PD-mediated decrease in cell viability. […] Data shown represent the means of quintuplicate measurements which were repeated three times. The results are presented as a percentage of control (means±SD).
Approximately 2×10^3 cells were seeded into each 6-well plate and then treated as described in FIG. 19. After 7 days, the cells were washed with PBS and stained with 0.5% crystal violet.
Furthermore, as can be confirmed in FIG. 19B, a colony formation assay was performed to confirm the effects of MβCD on PD-mediated GBM cell death.

C[C@@H]1O[C@@H](O[C@H]2[C@H](OC(=O)[C@]34CCC(C)(C)C[C@H]3C3=CC[C@@H]5[C@@]6(C)C[C@H](O)[C@H](O[C@@H]7O[C@H](CO)[C@@H](O)[C@H](O)[C@H]7O)C(CO)(CO)[C@@H]6CC[C@@]5(C)[C@]3(C)C[C@H]4O)OC[C@H](O)[C@@H]2O)[C@H](O)[C@H](O)[C@H]1O[C@@H]1OC[C@@H](O)[C@H](O[C@@H]2OC[C@](O)(CO)[C@H]2O)[C@H]1O [PD, platycodin D]
PD-mediated reduction in cell viability (normal human astrocytes): less effective
lysosomal acidification (LysoTracker Red fluorescence) (U87MG and U373MG cells [1]): does not affect lysosomal acidification
colocalization of GFP-LC3B and LysoTracker Red staining (U87MG and U373MG cells [1]; BafA1 100 nM, Rapa 1 μM): significant separation
cell morphology (cytoplasmic vacuoles) (U87MG and U373MG cells [2]): exhibited cytoplasmic vacuoles
cell viability [3]: suppressed the-viability in a dose-dependent manner
p62 staining and colocalization with GFP-LC3B puncta (U87MG and U373MG cells [4]): increase
fold increase of GFP-LC3 puncta per cell vs DMSO (U87MG cells): 10.1 fold
GFP-LC3 puncta per cell (U87MG cells; mean±SD): 38.03±5.75
colony-forming ability (U87MG and U373MG cells [5]): abolished
